The source of these data is patent US20190307783A1, “USE OF ANTIVIRALS TO INHIBIT PROTOZOAN VIRUSES” (priority 2016, published 2019).

The test system of one data set is L. guyanensis (LgyLRV1+). The data set is described as follows: Drug-inhibition test: growth of LgyLRV1+ parasites. Type of data set: cell-based, Leishmania guyanensis. As for the experimental part:
These compounds were examined for their ability to inhibit the growth of LgyLRV1^+ and virus levels by LRV1 capsid flow cytometry.
Most studies were performed using luciferase-expressing transfectants of L. guyanensis (MHOM/BR/78/M4147) described previously [LRV1^+ LgyM4147/SSU:IR2SAT-LUC(b)c3 and LRV^−LgyM4147/pX63HYG/SSU:IR2SAT-LUC(b)c4] (54); these lines are termed LgyLRV1^+ and LgyLRV1^−, respectively. Two strains of LRV1^+L. braziliensis were examined: LEM2780 (MHOM/BO/90/CS) and LEM3874 (MHOM/BO/99/IMT252 no. 3) (12). Parasites were grown in Schneider's media (Sigma Aldrich, St. Louis, Mo., USA) prepared according to the supplier's instructions with pH adjusted to 6.5 and supplemented with 0.76 mM hemin, 2 μg/mL biopterin, 50 U/mL penicillin, 50 μg/mL streptomycin, and 10% (vol/vol) heat-inactivated FBS. Cell concentrations were determined using a Coulter Counter ([…], Indianapolis, Ind., USA).
(§1) Parasites were inoculated at 2×10^5 cells/mL into Schneider's media lacking supplemental adenine.

In data set [1] the test system is LRV1 (LgyLRV1 capsid levels). Briefly: microbe, parasite or virus in culture.
From the text: Because LRV1 (like most Totiviridae) is not shed from the cell (33, 34), we developed a flow cytometric assay to measure intracellular LRV1 capsid levels on a per cell basis. To detect LRV1 we used binding to a rabbit anti-LgyLRV1 capsid antiserum (35) followed by detection with Alexa Fluor488-conjugated goat anti-rabbit IgG.
as §1
For capsid flow cytometry, 10^7 cells were fixed at room temperature using 2% (wt/vol) paraformaldehyde (Thermo Fisher Scientific) in PBS for 2 minutes. They were then incubated in blocking buffer [10% (vol/vol) normal goat serum (Vector Laboratories, Burlingame, Calif., USA) and 0.2% TRITON X-100 in PBS] for 30 minutes at room temperature. Anti-LgyLRV1 capsid antibody (35) was added (1:20,000 dilution) and incubated at room temperature for 1 hour. After two washes with PBS, cells were resuspended in 200 μL PBS with Alexa Fluor488-labeled goat anti-rabbit IgG (Alexafluor, Invitrogen; 1:1,000; or Thermo Fisher Scientific; 1:2,000 dilution), and incubated 1 hour at room temperature. After two additional washes with PBS, cells were subjected to flow cytometry, gating for single cells using forward and side scatter and the data analyzed using […] software (BD Bioscience, San Jose, Calif., USA).

For data set [2] the following is noted: animal models; cited from earlier work.
The next data set concerns Zika virus. The conditions noted are these: cultured mammalian cells; read-out: EC50 against Zika virus; cited from earlier work.
The next data set has as its target Lgy LRV1 RDRP (Leishmania RNA virus 1 - 4, UniProt Q02382). The data set is described as follows: RDRP assay of purified virions, [α-32P]UTP incorporation. Particulars: highest concentration tested 600 μM. Type of data set: biochemical, Leishmania RNA virus 1 (Lgy strain M4147). As for the experimental part:
RDRP assays were carried out with LRV1 virions purified from Lgy strain M4147 by an established cesium chloride (CsCl) equilibrium ultracentrifugation procedure {Widmer, 1989; Widmer, 1990}. Following separation, virus particles were detected and quantified by their reactivity with an anti-capsid antibody (FIG. 21). We reproducibly observed three overlapping ‘peaks’, designated low-, medium-, and high-density (LD, MD and HD) in order of increasing density. […] The densities of the Lgy LRV1 LD, MD and HD peaks were 1.29, 1.36 and 1.41 g/mL, in good agreement with the densities of L-A virus particles bearing ssRNA- and dsRNA- (1.31 and 1.41 g/mL, respectively) {Esteban, 1986}. […]
To measure RDRP activity, purified virions were allowed to incorporate [α-^32P]UTP in the presence of the remaining nucleoside triphosphates for 1 hour, a time chosen to allow one round of transcription or replication of the viral genome {Widmer, 1990}. RNA was purified and separated by native gel electrophoresis, and the products were visualized and quantified. […]
RDRP activity of purified virions was measured using an [α-^32P]UTP incorporation assay described previously{Widmer, 1990}. […] The standards lane was excised and stained with ethidium bromide, while the radiolabeled products were detected by exposing an imaging plate for 24 hours and reading it with a FLA-5100 phosphoimager (Fujifilm, Tokyo, Japan). […]

“Also recorded” adds a separate entry of the source.

Lgy LRV1 RDRP, sequence (Q02382 whole entry): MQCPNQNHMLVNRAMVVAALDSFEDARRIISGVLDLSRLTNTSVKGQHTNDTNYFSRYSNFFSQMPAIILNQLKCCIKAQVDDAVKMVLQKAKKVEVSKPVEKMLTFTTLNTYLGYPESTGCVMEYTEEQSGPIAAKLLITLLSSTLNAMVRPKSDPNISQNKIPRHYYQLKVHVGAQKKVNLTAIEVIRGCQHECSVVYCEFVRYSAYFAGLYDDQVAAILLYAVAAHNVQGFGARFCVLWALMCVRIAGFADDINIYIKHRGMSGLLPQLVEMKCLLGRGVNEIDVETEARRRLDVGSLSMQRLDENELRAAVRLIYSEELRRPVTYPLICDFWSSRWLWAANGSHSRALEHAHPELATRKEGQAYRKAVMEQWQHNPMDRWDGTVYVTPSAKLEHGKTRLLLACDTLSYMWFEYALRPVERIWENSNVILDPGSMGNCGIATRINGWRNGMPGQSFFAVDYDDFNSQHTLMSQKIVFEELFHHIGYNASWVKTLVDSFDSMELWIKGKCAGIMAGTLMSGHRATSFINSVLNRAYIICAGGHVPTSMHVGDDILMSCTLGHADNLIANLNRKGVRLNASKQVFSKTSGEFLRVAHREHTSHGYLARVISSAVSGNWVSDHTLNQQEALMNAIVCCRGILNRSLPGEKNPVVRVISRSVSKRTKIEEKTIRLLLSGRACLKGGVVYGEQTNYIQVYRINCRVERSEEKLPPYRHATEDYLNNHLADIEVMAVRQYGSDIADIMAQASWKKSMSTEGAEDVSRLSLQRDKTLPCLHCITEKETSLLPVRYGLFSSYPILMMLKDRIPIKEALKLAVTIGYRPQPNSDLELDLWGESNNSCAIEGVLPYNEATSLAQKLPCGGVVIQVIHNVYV

Consider `C[C@@]1(O)[C@H](O)[C@@H](CO)O[C@H]1n1ccc2c(N)ncnc21` [2′C-methyl-7-deaza-adenosine, 7-deaza-2′-C-methyladenosine], for which the activity at 100 µM in the data set on L. guyanensis (LgyLRV1+) (Leishmania guyanensis, 48 h, LgyLRV1+, tested at 100 μM, growth after 2 days, read-out: Percent control (density)) came to 20%; in data set [1] (48 h, read-out: Percent control (LRV1 capsid)) it was 10%. The 50% effective concentration (EC50) in the data set with L. guyanensis (LgyLRV1+) (Leishmania guyanensis, L. guyanensis, relative cellular growth rate, titration, read-out: EC50 for parasite growth) was above 100 µM; in data set [1] (read-out: EC50 for LRV1 capsid inhibition), around 5 µM; in the data set on Zika virus, 10 µM. Further, the inhibition at 100 µM in the data set on L. guyanensis (LgyLRV1+) (Leishmania guyanensis, tested at 100 μM, read-out: Inhibition of parasite density) came to 90%. In the data set on L. guyanensis (LgyLRV1+) (LgyLRV1+, tested at 100 μM, growth after 2 days), the “Density (cells/mL)” value is given as 3.38E+6 cells/mL. In data set [1] (EC50 growth vs EC50 LRV1 capsid), the “Selectivity for LRV1 versus L. guyanensis growth inhibition” value is above 20 fold. In data set [1] (LgyLRV1+, tested at 100 μM, 2 days), the “LRV1 capsid (geometric mean FU)” value is listed as 27 FU. In data set [1] (tested at 100 μM), the “Reduction in LRV1 capsid levels” value is 12 fold. Moreover, the Serum half-life in data set [2] is 1.6 h.
On to `Nc1ncnc2c1ncn2[C@H]1C[C@H](O)[C@@H](COP(=O)(O)OP(=O)(O)OP(=O)(O)O)O1` [dATP], for which, on Lgy LRV1 RDRP, the “Inhibition of RDRP activity, in words” value was “failed to inhibit; also recorded: completely inactive”.

One may read the EC50 as the concentration needed to bring the measured effect to its halfway point. Usually inhibition stands for the percentage by which the read-out fell short of the control.
